Laboratory results reported in patent US20170368207A1, “SELF-ASSEMBLED NANOSTRUCTURE AND METHOD FOR PREPARING THE SAME” (National Chiao Tung University, priority 2016, published 2017).

Assay: Relaxivity of contrast agents (Table 4)
Assay type: physicochemical
Excerpt: Relaxivities of a self-assembled nanostructure of the invention, gadodiamide, and carboxymethyl hexanoyl chitosan that physically encapsulates gadodiamide are as shown in Table 4. Hereinafter, the symbol “CHC+Gd” represents that there is only physical mixing between gadodiamide and carboxymethyl hexanoyl chitosan, while the symbol “CHC−Gd” represents that chemical bonding exists between gadodiamide and carboxymethyl hexanoyl chitosan (i.e., the self-assembled nanostructure of the invention).
As a molecule grafted to a paramagnetic metal of a contrast agent is larger, a rotation time between the paramagnetic metal and a solvent molecule becomes longer, so that the relaxivity of the contrast agent is enhanced. The higher the relaxivity of the contrast agent, the better the contrast effect, i.e., the more excellent the contrasting ability. In the self-assembled nanostructure of the invention, gadolinium (paramagnetic metal) has an amphiphilic chitosan (polymer) grafted thereto, and thus has a higher relaxivity than the relaxivities of the single gadodiamide and CHC+Gd. […] In other words, the contrast agent compound of the invention, after being grafted to the amphiphilic chitosan, produces a synergistic effect on the contrasting ability of the contrast agent compound.

- Relaxivity: 1.8158 mM⁻¹ s⁻¹
SMILES: CNC(=O)CN(CCN(CCN(CC(=O)[O-])CC(=O)NC)CC(=O)[O-])CC(=O)[O-].[Gd+3] [Gadodiamide, gadodiamide]
